Test results: patent US20130137753A1, “METHODS AND COMPOSITIONS FOR THE DIAGNOSIS AND TREATMENT OF BREAST CANCER” (UNIVERSITY OF SOUTH ALABAMA, priority 2010, published 2013)

Legend:
[1] = tested on: Merlin; experiment: Western blot of Merlin in MDA-MB-435 cells treated with Lactacystin and wortmannin; assay type: cell-based; conditions: combined treatment Lactacystin 10-25 μM and wortmannin 100 nM, FIG. 4E
Experimental: FIG. 4 depicts OPN targeting Merlin for Akt-mediated proteasomal degradation. FIG. 4A is a Western blot of SUM159 cells transfected with Merlin and treated with OPN and Lactacystin. […] The smear represents ubiquitinated Merlin. FIG. 4D is a Western blot of SUM159 transfected with HA-ubiquitin and Merlin and treated with OPN (100 ng/ml), Lactacystin (10 μM) and Akt inhibitor IV. FIG. 4E is a Western blot of MDA-MB-435 cells treated with the PI-3-kinase inhibitor, wortmannin and Lactacystin. Cells were pre-treated with Wortmannin (100 nM) for 1 hr followed by Lactacystin for 4.5 hours.
The converse was seen when MDAMB-435 cells were treated with the proteasome inhibitor, Lactacystin (10-25 μM) and the PI-3-kinase inhibitor, wortmannin (100 nM). […] Silencing the expression of OPN reduced the overall levels of ubiquitinated Merlin; in combination with Akt inhibitor and Lactacystin, abrogating OPN expression caused a notable decrease in the ubiquitinated Merlin (FIG. 4F).

[2] = tested on: Akt; experiment: Western blot of phospho-Akt and Merlin in MCF10AT cells treated with OPN and Akt inhibitor IV; assay type: cell-based, human; conditions: FIG. 4B
Text: (§1) Western Blotting Analysis—Immunoblotting was done with anti-Merlin (Santa Cruz Biotech, Santa Cruz, Calif.), phospho-Ser473-Akt (Cell Signaling, Danvers, MAT), total Akt (Cell Signaling), anti-mouse HA (Santa Cruz), antiphospho-Ser315 Merlin, and anti-GAPDH (Cell Signaling). Anti-rabbit or anti-mouse HRP conjugated secondary antibody was used for detection and blots were developed with SuperSignal substrate (Pierce, Rockford, Ill.) and exposed using a Fuji LAS3000 imager.
(§2) Transfection and Drug Treatment—Cells were transfected with empty vector, Merlin (WT; wild-type) or T230A S315A Merlin mutant and treated with clasto-Lactacystin β-Lactone (Sigma, St. Louis, Mo.) for 2 hours. Recombinant OPN (100 ng/mL) (R&D Systems, Minneapolis, Minn.) was added and cells were lysed after 6 hours. Where indicated, cells were first treated with Akt inhibitor IV (Calbiochem) in serum free media for 30 min followed by 100 ng/mL human rOPN for 24 hours.
OPN interacts with a variety of cell surface receptors including CD44 and multiple integrins to activate signaling via the Akt pathway (31,38,39). […] The levels of total Akt remain unaltered. MCF10AT cells were also treated with Akt inhibitor IV in addition to OPN. […] Phosphorylation of Merlin via Akt targets it for degradation by the proteasome (15,40,41).

[3] = tested on: Merlin; experiment: Immunoprecipitation of endogenous Merlin and anti-HA blot for ubiquitination in MCF10AT cells transfected with HA-ubiquitin; assay type: cell-based, human
Experimental: (§3) Immunoprecipitation—Cells were transfected with pcDNA3.1 HA-ubiquitin alone or in combination with pIRES2-myc-Merlin and incubated for 24 hrs. Cells were treated with 10 μM Lactacystin, 100 ng/ml OPN and 10 μM AKT inhibitor IV for 12 hrs and lysed in NP-40 buffer. The lysate was immunoprecipitated with anti-Merlin antibody and the immunoprecipitate was assessed by immunoblotting.
To examine if OPN can induce ubiquitination of endogenous Merlin leading to its proteasomal degradation, MCF10AT cells were transfected with a HA-ubiquitin expressing construct. MCF10AT cells were transfected with HA-ubiquitin and treated with OPN, Lactacystin and Akt inhibitor IV. Cell lysate (2 mg) harvested in NP40 buffer was immunoprecipitated overnight for endogenous Merlin. The immunoprecipitate was immunoblotted with anti-HA antibody. Merlin and GAPDH levels from the cell lysates were inputs for the experiment.

[4] = tested on: Merlin; experiment: Immunoprecipitation of Merlin and anti-HA blot for ubiquitination in SUM159 cells transfected with HA-ubiquitin and Merlin; assay type: cell-based, human; conditions: SUM159 cells constitutively expressing Merlin, OPN 100 ng/ml, Lactacystin 10 μM, FIG. 4D
Experimental: as §3
To assess the role of activated Akt induced by OPN, cells were co-treated with an Akt inhibitor. SUM159 cells were transfected with HA-ubiquitin and Merlin and treated with OPN (100 ng/ml), Lactacystin (10 μM) and Akt inhibitor IV. Cell lysate (1 mg) harvested in NP40 buffer was immunoprecipitated for Merlin. The immunoprecipitate was immunoblotted with anti-HA antibody. […] Merlin ubiquitination was enhanced when co-treated with OPN and was abolished in the presence of Akt inhibitor re-affirming the role of Akt downstream of OPN in modulating the stability of Merlin (FIG. 4D).

[5] = tested on: Merlin; experiment: Western blot of Merlin protein levels in SUM159 cells transfected with Merlin cDNA and treated with recombinant OPN and Lactacystin; assay type: cell-based, human; conditions: SUM159 cells transfected with Merlin cDNA, recombinant OPN 100 ng/mL, FIG. 4A
Text: as §1, §2
Akt signaling initiated downstream of OPN may regulate Merlin. To examine the effects of OPN on the post-translational regulation of Merlin, specifically the stability of Merlin protein, SUM159 breast cancer cells were transfected with Merlin cDNA and treated with recombinant OPN.

[6] = tested on: Merlin; experiment: Western blot of phosphorylated Merlin (Serine 315) in SUM159 cells transfected with Merlin and treated with OPN; assay type: cell-based, human; conditions: SUM159 cells transfected with Merlin, treated with OPN, FIG. 5A
Text: as §1
Lysate from SUM159 cells transfected with Merlin and treated with OPN was probed for total Merlin and phosphorylated Merlin (Serine 315). GAPDH was used as a loading control. […] Phosphorylation of Merlin at this residue has been reported to target it for proteasome-mediated degradation (15,40). In particular, […] of Serine 315 and Threonine 230 makes Merlin refractory to OPN. SUM159 cells were transfected with Merlin (WT) or the T230A/S315A Merlin mutant and treated with OPN and Lactacystin. Cell lysates were probed for total Merlin. GAPDH was used as a loading control. Mutant Merlin (T230A S315A) is not degraded in response to OPN, whereas wild-type Merlin is degraded by OPN. […] It was further determined that while OPN is able to induce degradation of Merlin, the Merlin mutant T230A S315A (that cannot be phosphorylated by Akt) is resistant to the effects of OPN (FIG. 5B). […]

Compound	Merlin expression [1]	levels of Akt phosphorylation ([2]; Akt inhibitor IV in addition to OPN)	levels of Merlin ([2]; Akt inhibitor IV in the presence of OPN)	ubiquitination of endogenous Merlin ([3]; co-treatment with Akt inhibitor in the presence of OPN)	Merlin ubiquitination [4]	protein levels of Merlin [5]	Akt activation (phosphorylation of Akt to phospho-Akt) ([2]; recombinant OPN alone)	levels of Merlin ([2]; recombinant OPN alone)	ubiquitination of endogenous Merlin (smear) ([3]; MCF10AT cells transfected with HA-ubiquitin, FIG. 4C)	phosphorylation of Merlin at Ser315 [6]
CC(=O)N[C@@H](CSC(=O)[C@]1([C@@H](O)C(C)C)NC(=O)[C@H](C)[C@@H]1O)C(=O)O	restored Merlin expression	–	–	–	–	–	–	–	–	–
Akt inhibitor IV	–	decreased	restored	abolished	abolished	–	–	–	–	–
OPN: Recombinant OPN (R&D Systems), human rOPN; secreted phosphoglycoprotein osteopontin	–	–	–	–	enhanced	decrease in the protein levels of Merlin	activated Akt	decrease in the levels of Merlin	some ubiquitination	phosphorylation of Merlin at the Ser315 position
